Experimental data as given in patent US10022376B2 (Pfizer Inc., priority 2014, dated 2018).
Structures can show the parent of a compound that is named as a salt.

What was measured:
[1] = biological target: JAK1 (Homo sapiens (Human), UniProt P23458); test: JAK Caliper Enzyme Assay at 1 mM ATP (JAK1); type: biochemical; conditions: Caliper assay at 1 mM ATP
[2] = biological target: TYK2 (Homo sapiens (Human), UniProt P29597); test: JAK Caliper Enzyme Assay at 1 mM ATP (TYK2); type: biochemical; conditions: Caliper assay at 1 mM ATP
[3] = biological target: JAK3 (Homo sapiens (Human), UniProt P52333); test: JAK Caliper Enzyme Assay at 1 mM ATP (JAK3); type: biochemical; conditions: Caliper assay at 1 mM ATP
[4] = biological target: JAK2 (Homo sapiens (Human), UniProt O60674); test: JAK Caliper Enzyme Assay at 1 mM ATP (JAK2); type: biochemical; conditions: Caliper assay at 1 mM ATP
[5] = system: rhIFNγ stimulated STAT-3 phosphorylation in the A549 human epithelial cell line; test: A549 Cell Assay: Inhibition of pSTAT3; type: cell-based; conditions: A549 cells
In short: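 Percent inhibition of STAT3 Tyr705 phosphorylation was measured by MSD immunoassay of cell lysates. A549 cells were given compound for 1 h at 37° C (final 0.3 nM to 10 μM, 0.1% DMSO, in 0.2% BSA DMEM), followed by 30 min of rhIFNγ stimulation at 20 ng/mL final. Unstimulated DMSO wells served as background.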

TYK2, sequence (P29597 whole entry): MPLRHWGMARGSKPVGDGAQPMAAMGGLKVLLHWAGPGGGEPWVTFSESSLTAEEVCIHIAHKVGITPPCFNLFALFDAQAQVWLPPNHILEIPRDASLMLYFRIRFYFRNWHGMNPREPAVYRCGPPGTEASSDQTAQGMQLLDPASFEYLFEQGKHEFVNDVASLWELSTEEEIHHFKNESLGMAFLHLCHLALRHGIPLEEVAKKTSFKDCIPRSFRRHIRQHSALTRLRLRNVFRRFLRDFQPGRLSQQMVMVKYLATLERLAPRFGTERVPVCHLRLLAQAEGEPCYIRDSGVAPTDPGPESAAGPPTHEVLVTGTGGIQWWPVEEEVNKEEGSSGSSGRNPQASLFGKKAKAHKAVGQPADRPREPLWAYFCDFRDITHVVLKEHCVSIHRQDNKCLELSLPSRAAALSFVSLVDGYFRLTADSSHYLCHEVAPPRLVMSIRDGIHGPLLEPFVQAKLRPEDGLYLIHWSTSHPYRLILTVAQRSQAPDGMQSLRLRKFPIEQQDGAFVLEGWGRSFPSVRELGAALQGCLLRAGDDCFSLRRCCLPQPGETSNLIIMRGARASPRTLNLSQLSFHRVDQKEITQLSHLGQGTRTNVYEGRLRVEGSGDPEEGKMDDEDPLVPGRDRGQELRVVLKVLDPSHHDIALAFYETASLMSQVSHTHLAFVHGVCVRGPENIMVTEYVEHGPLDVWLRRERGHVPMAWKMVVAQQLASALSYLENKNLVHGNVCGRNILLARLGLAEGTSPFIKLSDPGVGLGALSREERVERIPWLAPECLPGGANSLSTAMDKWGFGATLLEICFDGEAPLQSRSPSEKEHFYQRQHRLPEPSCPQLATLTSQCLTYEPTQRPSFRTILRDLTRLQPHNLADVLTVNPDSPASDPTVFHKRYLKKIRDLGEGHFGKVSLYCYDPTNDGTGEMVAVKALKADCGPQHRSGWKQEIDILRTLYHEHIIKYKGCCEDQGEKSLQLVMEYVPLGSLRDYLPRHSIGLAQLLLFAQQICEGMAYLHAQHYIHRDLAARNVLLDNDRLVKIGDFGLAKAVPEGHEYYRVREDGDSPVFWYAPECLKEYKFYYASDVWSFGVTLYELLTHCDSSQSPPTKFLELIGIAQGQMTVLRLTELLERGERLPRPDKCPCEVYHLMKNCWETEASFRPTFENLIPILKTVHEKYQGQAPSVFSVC
JAK3, sequence (P52333 whole entry): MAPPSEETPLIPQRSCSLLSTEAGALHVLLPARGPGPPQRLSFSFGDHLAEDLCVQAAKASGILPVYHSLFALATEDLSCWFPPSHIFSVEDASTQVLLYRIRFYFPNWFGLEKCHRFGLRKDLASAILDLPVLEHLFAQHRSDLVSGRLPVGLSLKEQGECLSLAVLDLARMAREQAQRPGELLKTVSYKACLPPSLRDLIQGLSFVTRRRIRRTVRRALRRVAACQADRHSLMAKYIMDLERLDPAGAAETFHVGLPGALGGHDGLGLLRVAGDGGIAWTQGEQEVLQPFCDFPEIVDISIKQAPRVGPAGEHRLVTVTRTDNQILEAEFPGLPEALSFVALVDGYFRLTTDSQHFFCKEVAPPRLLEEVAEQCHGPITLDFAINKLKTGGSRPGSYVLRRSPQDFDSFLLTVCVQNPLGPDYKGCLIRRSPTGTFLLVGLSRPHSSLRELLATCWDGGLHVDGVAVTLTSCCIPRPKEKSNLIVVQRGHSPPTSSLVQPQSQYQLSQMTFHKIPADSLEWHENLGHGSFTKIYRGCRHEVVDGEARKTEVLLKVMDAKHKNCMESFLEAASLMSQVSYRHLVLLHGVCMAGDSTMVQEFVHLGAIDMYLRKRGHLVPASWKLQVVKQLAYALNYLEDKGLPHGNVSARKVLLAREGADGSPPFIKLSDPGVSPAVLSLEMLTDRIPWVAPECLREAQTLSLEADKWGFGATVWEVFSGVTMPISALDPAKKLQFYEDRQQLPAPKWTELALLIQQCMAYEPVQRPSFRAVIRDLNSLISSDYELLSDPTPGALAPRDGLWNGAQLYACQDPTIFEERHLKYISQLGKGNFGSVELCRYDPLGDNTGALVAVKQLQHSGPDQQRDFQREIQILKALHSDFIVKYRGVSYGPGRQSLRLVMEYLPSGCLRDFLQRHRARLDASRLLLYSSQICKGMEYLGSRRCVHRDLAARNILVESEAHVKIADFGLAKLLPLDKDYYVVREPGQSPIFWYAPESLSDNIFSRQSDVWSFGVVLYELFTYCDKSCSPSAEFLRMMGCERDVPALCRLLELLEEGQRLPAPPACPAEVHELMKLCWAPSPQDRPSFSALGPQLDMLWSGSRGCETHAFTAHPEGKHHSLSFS
JAK1, sequence (P23458 whole entry): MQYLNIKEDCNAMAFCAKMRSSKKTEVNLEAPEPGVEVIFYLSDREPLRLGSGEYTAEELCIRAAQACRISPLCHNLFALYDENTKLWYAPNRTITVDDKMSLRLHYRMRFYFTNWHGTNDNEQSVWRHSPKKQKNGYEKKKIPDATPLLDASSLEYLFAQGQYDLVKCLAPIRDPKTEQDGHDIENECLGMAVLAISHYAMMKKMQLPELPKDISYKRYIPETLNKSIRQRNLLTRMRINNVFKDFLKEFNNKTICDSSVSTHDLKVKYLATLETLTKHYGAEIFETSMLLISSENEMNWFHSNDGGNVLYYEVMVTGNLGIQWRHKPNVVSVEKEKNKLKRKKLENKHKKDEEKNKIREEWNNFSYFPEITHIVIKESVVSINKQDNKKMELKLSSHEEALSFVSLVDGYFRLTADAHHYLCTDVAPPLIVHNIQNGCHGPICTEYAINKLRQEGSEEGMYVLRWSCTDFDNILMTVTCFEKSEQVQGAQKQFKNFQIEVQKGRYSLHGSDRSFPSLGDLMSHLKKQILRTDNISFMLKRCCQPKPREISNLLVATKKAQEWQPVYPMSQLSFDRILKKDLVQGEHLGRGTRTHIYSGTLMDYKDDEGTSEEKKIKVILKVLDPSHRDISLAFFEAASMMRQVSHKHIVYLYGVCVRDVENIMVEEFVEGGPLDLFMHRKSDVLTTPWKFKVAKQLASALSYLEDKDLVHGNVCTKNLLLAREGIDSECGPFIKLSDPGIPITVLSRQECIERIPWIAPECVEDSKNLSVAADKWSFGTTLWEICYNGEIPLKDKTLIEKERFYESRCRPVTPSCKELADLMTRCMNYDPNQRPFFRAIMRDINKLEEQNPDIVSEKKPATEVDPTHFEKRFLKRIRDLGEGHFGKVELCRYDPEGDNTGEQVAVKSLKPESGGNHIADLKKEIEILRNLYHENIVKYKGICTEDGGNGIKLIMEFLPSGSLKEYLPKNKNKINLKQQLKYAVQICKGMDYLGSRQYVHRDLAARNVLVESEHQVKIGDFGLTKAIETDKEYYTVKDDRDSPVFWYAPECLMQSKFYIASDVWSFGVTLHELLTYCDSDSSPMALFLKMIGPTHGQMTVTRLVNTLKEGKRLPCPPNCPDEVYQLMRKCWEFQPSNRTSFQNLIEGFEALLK
JAK2, sequence (O60674 whole entry): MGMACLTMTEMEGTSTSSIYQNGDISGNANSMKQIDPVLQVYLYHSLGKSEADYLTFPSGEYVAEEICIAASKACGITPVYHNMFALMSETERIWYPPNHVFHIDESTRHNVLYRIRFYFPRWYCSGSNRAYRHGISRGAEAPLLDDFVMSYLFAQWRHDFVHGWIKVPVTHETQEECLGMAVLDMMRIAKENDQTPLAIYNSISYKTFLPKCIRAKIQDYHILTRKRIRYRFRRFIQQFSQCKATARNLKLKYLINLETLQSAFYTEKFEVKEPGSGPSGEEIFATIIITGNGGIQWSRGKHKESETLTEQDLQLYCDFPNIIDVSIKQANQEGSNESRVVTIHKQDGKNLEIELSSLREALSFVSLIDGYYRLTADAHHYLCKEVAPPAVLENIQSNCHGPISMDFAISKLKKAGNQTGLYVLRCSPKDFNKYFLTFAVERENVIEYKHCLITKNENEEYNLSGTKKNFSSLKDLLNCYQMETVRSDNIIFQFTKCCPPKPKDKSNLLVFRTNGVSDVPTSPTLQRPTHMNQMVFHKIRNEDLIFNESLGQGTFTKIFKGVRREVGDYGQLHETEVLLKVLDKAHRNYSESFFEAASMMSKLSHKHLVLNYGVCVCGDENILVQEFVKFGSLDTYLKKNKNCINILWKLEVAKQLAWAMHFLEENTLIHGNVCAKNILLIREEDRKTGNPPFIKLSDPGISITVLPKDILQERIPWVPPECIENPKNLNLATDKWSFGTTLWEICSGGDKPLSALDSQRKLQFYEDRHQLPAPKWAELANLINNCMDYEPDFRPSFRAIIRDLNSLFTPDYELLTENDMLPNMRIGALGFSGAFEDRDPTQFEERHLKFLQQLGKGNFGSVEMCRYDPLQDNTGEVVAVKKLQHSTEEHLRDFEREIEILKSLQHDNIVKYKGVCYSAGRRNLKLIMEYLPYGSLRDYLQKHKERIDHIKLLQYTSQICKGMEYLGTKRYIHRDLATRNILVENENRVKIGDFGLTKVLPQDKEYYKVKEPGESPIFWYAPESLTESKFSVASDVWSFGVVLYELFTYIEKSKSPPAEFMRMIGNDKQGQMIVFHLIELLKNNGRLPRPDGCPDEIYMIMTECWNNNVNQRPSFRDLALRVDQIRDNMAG

In the case of CCc1cc(O)ccc1-c1cc2[nH]ncc2c(N2CCC(S(=O)(=O)N(C)C)C2)n1 (racemic) [Example 126, 1-[6-(2-ethyl-4-hydroxyphenyl)-1H-pyrazolo[4,3-c]pyridin-4-yl]-N, N-dimethylpyrrolidine-3-sulfonamide (racemic)], the IC50 [1] is reported as 8.1 nM, the IC50 [2] is reported as 668 nM and the IC50 [3] is reported as 35.1 nM. For the same compound, the IC50 [4] was 23.5 nM.

Compound CCc1cc(O)c(F)cc1-c1cc2[nH]nc(C(=O)NC)c2c(NCc2ccccc2N(CC)S(C)(=O)=O)n1 [Example 9, 6-(2-ethyl-5-fluoro-4-hydroxyphenyl)-4-({2-[ethyl(methylsulfonyl)amino]benzyl}amino)-N-methyl-1H-pyrazolo[4,3-c]pyridine-3-carboxamide] has an IC50 [1] of 1.7 nM, an IC50 [2] of 7.2 nM and an IC50 [3] of 60 nM. The IC50 [4] was 10.8 nM and the IC50 ([5]; Homo sapiens) was 14.9 nM.

For CCc1cc(O)c(F)cc1-c1cc2[nH]nc(C(=O)NC)c2c(NCC2CCCC2)n1 [Example 10, 4-[(cyclopentylmethyl)amino]-6-(2-ethyl-5-fluoro-4-hydroxyphenyl)-N-methyl-1H-pyrazolo[4,3-c]pyridine-3-carboxamide], the IC50 [1] was 4.7 nM, the IC50 [2] was 17.9 nM and the IC50 [3] was 93.1 nM. It also gave an IC50 [4] of 19 nM and an IC50 ([5]; Homo sapiens) of 26 nM.

For CCN(c1ccccc1CNc1nc(-c2cc(F)c(O)cc2CC(F)(F)F)cc2[nH]nc(C(=O)NC)c12)S(C)(=O)=O [Example 12, 4-({2-[ethyl(methylsulfonyl)amino]benzyl}amino)-6-[5-fluoro-4-hydroxy-2-(2,2,2-trifluoroethyl)phenyl]-N-methyl-1H-pyrazolo[4,3-c]pyridine-3-carboxamide], the IC50 [1] was 6.4 nM, the IC50 [2] was 24.8 nM and the IC50 [3] was 121 nM. For the same compound, the IC50 [4] was 31.5 nM and the IC50 ([5]; Homo sapiens) was 44.9 nM.

For CCS(=O)(=O)N(C)c1ccccc1CNc1nc(-c2cc(F)c(O)cc2CC(F)(F)F)cc2[nH]nc(C(=O)NC)c12 [Example 13, 4-({2-[(ethylsulfonyl)(methyl)amino]benzyl}amino)-6-[5-fluoro-4-hydroxy-2-(2,2,2-trifluoroethyl)phenyl]-N-methyl-1H-pyrazolo[4,3-c]pyridine-3-carboxamide], the IC50 [1] was 5.3 nM, the IC50 [2] was 35.7 nM and the IC50 [3] was 118 nM. It also gave an IC50 [4] of 26.6 nM and an IC50 ([5]; Homo sapiens) of 96.7 nM.

CNC(=O)c1n[nH]c2cc(-c3cc(F)c(O)cc3CC(F)(F)F)nc(NCc3cc(F)ccc3N(C)S(C)(=O)=O)c12 [Example 14, 6-[5-fluoro-4-hydroxy-2-(2,2,2-trifluoroethyl)phenyl]-4-({5-fluoro-2-[methyl(methylsulfonyl)amino]benzyl}amino)-N-methyl-1H-pyrazolo[4,3-c]pyridine-3-carboxamide] gave an IC50 [1] of 4.2 nM, an IC50 [2] of 43.2 nM and an IC50 [3] of 99.7 nM. The IC50 [4] was 20.5 nM and the IC50 ([5]; Homo sapiens) was 20.7 nM.

In the case of CCc1cc(O)c(F)cc1-c1cc2[nH]nc(C(=O)NC)c2c(NCc2cc(C)ccc2N(C)S(C)(=O)=O)n1 [Example 21, 6-(2-ethyl-5-fluoro-4-hydroxyphenyl)-N-methyl-4-({5-methyl-2-[methyl(methylsulfonyl)amino]benzyl}amino)-1H-pyrazolo[4,3-c]pyridine-3-carboxamide], the IC50 [1] is reported as 2.7 nM, the IC50 [2] is reported as 11.4 nM and the IC50 [3] is reported as 67.9 nM. For the same compound, the IC50 [4] was 13.2 nM and the IC50 ([5]; Homo sapiens) was 35.6 nM.

For CCc1cc(O)c(F)cc1-c1cc2[nH]nc(C(=O)NC)c2c(NCc2ccccc2N(C)S(=O)(=O)c2ccccc2)n1 [Example 22, 6-(2-ethyl-5-fluoro-4-hydroxyphenyl)-N-methyl-4-({2-[methyl(phenylsulfonyl)amino]benzyl}amino)-1H-pyrazolo[4,3-c]pyridine-3-carboxamide], the IC50 [1] was 17.5 nM, the IC50 [2] was 59.1 nM and the IC50 [3] was 359 nM. The IC50 [4] was 81.3 nM and the IC50 ([5]; Homo sapiens) was 52.8 nM.

CCc1cc(O)c(F)cc1-c1cc2[nH]nc(C(=O)NC)c2c(NCCc2ccc(NS(=O)(=O)c3ccccc3)cc2)n1 [Example 23, 6-(2-ethyl-5-fluoro-4-hydroxyphenyl)-N-methyl-4-[(2-{4-[(phenylsulfonyl)amino]phenyl}ethyl)amino]-1H-pyrazolo[4,3-c]pyridine-3-carboxamide] gave an IC50 [1] of 5.8 nM, an IC50 [2] of 83.2 nM and an IC50 [3] of 111 nM. For the same compound, the IC50 [4] was 25.7 nM and the IC50 ([5]; Homo sapiens) was 51.4 nM.

CNC(=O)c1n[nH]c2cc(-c3cc(F)c(O)cc3CC(F)(F)F)nc(NCc3ccccc3N(CCO)S(C)(=O)=O)c12 [Example 24, 6-[5-fluoro-4-hydroxy-2-(2,2,2-trifluoroethyl)phenyl]-4-({2-[(2-hydroxyethyl)(methylsulfonyl)amino]benzyl}amino)-N-methyl-1H-pyrazolo[4,3-c]pyridine-3-carboxamide] gave an IC50 [1] of 2.9 nM, an IC50 [2] of 29.9 nM and an IC50 [3] of 69.6 nM. It also gave an IC50 [4] of 16.5 nM and an IC50 ([5]; Homo sapiens) of 226 nM.

Compound CN(c1ccccc1CNc1nc(-c2cc(F)c(O)cc2CC(F)(F)F)cc2[nH]nc(C(N)=O)c12)S(=O)(=O)c1ccccc1 [Example 26, 6-[5-fluoro-4-hydroxy-2-(2,2,2-trifluoroethyl)phenyl]-4-({2-[methyl(phenylsulfonyl)amino]benzyl}amino)-1H-pyrazolo[4,3-c]pyridine-3-carboxamide] has an IC50 [1] of 19.9 nM, an IC50 [2] of 218 nM and an IC50 [3] of 293 nM. For the same compound, the IC50 [4] was 91.1 nM and the IC50 ([5]; Homo sapiens) was 124 nM.

With CNC(=O)c1n[nH]c2cc(-c3cc(F)c(O)cc3CC(F)(F)F)nc(NCc3ccc(O)cc3N(C)S(C)(=O)=O)c12 [Example 33, 6-[5-fluoro-4-hydroxy-2-(2,2,2-trifluoroethyl)phenyl]-4-({4-hydroxy-2-[methyl(methylsulfonyl)amino]benzyl}amino)-N-methyl-1H-pyrazolo[4,3-c]pyridine-3-carboxamide] the IC50 [1] was 5.7 nM, the IC50 [2] was 282 nM and the IC50 [3] was 75.2 nM. The IC50 [4] was 25 nM and the IC50 ([5]; Homo sapiens) was 490 nM.

CNC(=O)c1n[nH]c2cc(-c3cc(F)c(O)cc3CC(F)(F)F)nc(NCc3cc(O)ccc3N(C)S(=O)(=O)c3ccccc3)c12 [Example 35, 6-[5-fluoro-4-hydroxy-2-(2,2,2-trifluoroethyl)phenyl]-4-({5-hydroxy-2-[methyl(phenylsulfonyl)amino]benzyl}amino)-N-methyl-1H-pyrazolo[4,3-c]pyridine-3-carboxamide] showed an IC50 [1] of 39.9 nM, an IC50 [2] of 256 nM and an IC50 [3] of 817 nM. For the same compound, the IC50 [4] was 249 nM and the IC50 ([5]; Homo sapiens) was 437 nM.

With CNC(=O)c1n[nH]c2cc(-c3cc(F)c(O)cc3CC(F)(F)F)nc(NCc3cc(O)ccc3N(C)S(C)(=O)=O)c12 [Example 50] the IC50 [2] was 10.5 nM, the IC50 [3] was 47.4 nM and the IC50 [4] was 10.7 nM. For the same compound, the IC50 [5] was 321 nM.

CNC(=O)c1n[nH]c2cc(-c3cc(F)c(O)cc3CC(F)(F)F)nc(NCc3cc(O)ccc3N(C)S(=O)(=O)c3cccnc3)c12 [Example 54, 6-[5-fluoro-4-hydroxy-2-(2,2,2-trifluoroethyl)phenyl]-4-({5-hydroxy-2-[methyl(pyridin-3-ylsulfonyl)amino]benzyl}amino)-N-methyl-1H-pyrazolo[4,3-c]pyridine-3-carboxamide] gave an IC50 [1] of 6.1 nM, an IC50 [2] of 25.9 nM and an IC50 [3] of 123 nM. It also gave an IC50 [4] of 32.9 nM and an IC50 ([5]; Homo sapiens) of 135 nM.

Cc1cnc(N(C)S(C)(=O)=O)c(CNc2nc(-c3cc(F)c(O)cc3CC(F)(F)F)cc3[nH]nc(C(N)=O)c23)c1 [Example 86, 6-(5-fluoro-4-hydroxy-2-(2,2,2-trifluoroethyl)phenyl)-4-(((5-methyl-2-(N-methylmethylsulfonamido)pyridin-3-yl)methyl)amino)-1H-pyrazolo[4,3-c]pyridine-3-carboxamide] showed an IC50 [1] of 38.4 nM, an IC50 [2] of 4820 nM and an IC50 [3] of 81.7 nM. The IC50 [4] was 110 nM and the IC50 ([5]; Homo sapiens) was 425 nM.

In the case of CCc1cc(O)c(F)cc1-c1cc2[nH]ncc2c(N(CCc2ccc(NS(C)(=O)=O)cc2)Cc2ccccc2N(C)S(C)(=O)=O)n1 [Example 130, N-[2-({[6-(2-ethyl-5-fluoro-4-hydroxyphenyl)-1H-pyrazolo[4,3-c]pyridin-4-yl](2-{4-[(methylsulfonyl)amino]phenyl}ethyl)amino}methyl)phenyl]-N-methylmethanesulfonamide hydrochloride], the IC50 [1] is reported as 43.8 nM, the IC50 [2] is reported as 194 nM and the IC50 [3] is reported as 1360 nM. For the same compound, the IC50 ([5]; Homo sapiens) was 729 nM.

Work on CCc1cc(O)c(F)cc1-c1cc2[nH]ncc2c(NCc2ccccc2N(CC)S(C)(=O)=O)n1 [Example 138, N-ethyl-N-[2-({[6-(2-ethyl-5-fluoro-4-hydroxyphenyl)-1H-pyrazolo[4,3-c]pyridin-4-yl]amino}-methyl)phenyl]methanesulfonamide] yielded an IC50 [2] of 4.8 nM, an IC50 [3] of 14.2 nM and an IC50 [4] of 2.6 nM. For the same compound, the IC50 ([5]; Homo sapiens) was 5.4 nM.
